In patent publication US8138168B1 (Takeda Pharmaceutical Company Limited, priority 2007, dated 2012):

Target: T1, Recombinant human renin (Homo sapiens, UniProt P00797)
T1 construct: isolate the active form (residues 67-406); made in house; host or cells: FreeStyle 293-F cells (transient expression of pcDNA3.1(+)/hREN)
T1 sequence (P00797 67-406): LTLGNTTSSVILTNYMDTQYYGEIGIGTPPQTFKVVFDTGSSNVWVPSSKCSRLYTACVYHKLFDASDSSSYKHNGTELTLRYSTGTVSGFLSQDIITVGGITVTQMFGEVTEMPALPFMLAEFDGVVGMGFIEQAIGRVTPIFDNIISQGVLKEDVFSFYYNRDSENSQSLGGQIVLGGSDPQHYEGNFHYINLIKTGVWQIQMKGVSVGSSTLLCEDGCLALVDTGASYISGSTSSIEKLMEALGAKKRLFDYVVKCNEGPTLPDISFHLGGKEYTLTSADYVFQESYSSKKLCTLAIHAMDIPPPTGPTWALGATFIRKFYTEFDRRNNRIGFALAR
Test: In vitro enzymatic activity assay of renin inhibitors (fluorogenic peptide substrate)
Type: biochemical
Conditions: read-out: IC50 of Exemplified Compounds Against Renin
In short: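 Recombinant human renin (3 nM final) pre-incubated 10 min at 37 °C with compounds in pH 7.4 Hepes/EDTA/DTT/0.1 mg/mL BSA/Brij35 buffer (optionally plus 2% BSA), 5% DMSO final; fluorogenic QXL520/HiLyteFluo488 peptide substrate added.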

IC50, 100 to 1000 nM:
COCCCn1c([C@@H]2CCCN(C(=O)[C@@H]3CN(S(=O)(=O)c4cc(Cl)ccc4Cl)C[C@H]3N)C2)nc2ccccc21 [Compound 343, ((3R,4S)-4-amino-1-(2,5-dichlorophenylsulfonyl)pyrrolidin-3-yl)((R)-3-(1-(3-methoxypropyl)-1H-benzo[d]imidazol-2-yl)piperidin-1-yl)methanone]
COCCCn1c([C@@H]2CCCN(C(=O)[C@@H]3CN(S(=O)(=O)c4cc(C)c(Cl)cc4C)C[C@H]3N)C2)nc2ccccc21 [Compound 344, ((3R,4S)-4-amino-1-(4-chloro-2,5-dimethylphenylsulfonyl)pyrrolidin-3-yl)((R)-3-(1-(3-methoxypropyl)-1H-benzo[d]imidazol-2-yl)piperidin-1-yl)methanone]
COCCCn1c([C@@H]2CCCN(C(=O)[C@@H]3CN(S(=O)(=O)c4cc(Cl)c(Cl)cc4Cl)C[C@H]3N)C2)nc2ccccc21 [Compound 345, ((3R,4S)-4-amino-1-(2,4,5-trichlorophenylsulfonyl)pyrrolidin-3-yl)((R)-3-(1-(3-methoxypropyl)-1H-benzo[d]imidazol-2-yl)piperidin-1-yl)methanone]
COCCCn1c([C@@H]2CCCN(C(=O)[C@@H]3CN(S(=O)(=O)c4ccccc4Cl)C[C@H]3N)C2)nc2ccccc21 [Compound 346, ((3R,4S)-4-amino-1-(2-chlorophenylsulfonyl)pyrrolidin-3-yl)((R)-3-(1-(3-methoxypropyl)-1H-benzo[d]imidazol-2-yl)piperidin-1-yl)methanone]
COCCCn1c([C@@H]2CCCN(C(=O)[C@@H]3CN(S(=O)(=O)c4c(Cl)cccc4Cl)C[C@H]3N)C2)nc2ccccc21 [Compound 347, ((3R,4S)-4-amino-1-(2,6-dichlorophenylsulfonyl)pyrrolidin-3-yl)((R)-3-(1-(3-methoxypropyl)-1H-benzo[d]imidazol-2-yl)piperidin-1-yl)methanone]
COCCCn1c([C@@H]2CCCN(C(=O)[C@@H]3CN(S(=O)(=O)c4ccc(-c5ccccc5)cc4)C[C@H]3N)C2)nc2ccccc21 [Compound 348, ((3R,4S)-4-amino-1-(biphenyl-4-ylsulfonyl)pyrrolidin-3-yl)((R)-3-(1-(3-methoxypropyl)-1H-benzo[d]imidazol-2-yl)piperidin-1-yl)methanone]
COCCCn1c([C@@H]2CCCN(C(=O)[C@@H]3CN(S(=O)(=O)c4ccc(F)cc4Cl)C[C@H]3N)C2)nc2ccccc21 [Compound 349, ((3R,4S)-4-amino-1-(2-chloro-4-fluorophenylsulfonyl)pyrrolidin-3-yl)((R)-3-(1-(3-methoxypropyl)-1H-benzo[d]imidazol-2-yl)piperidin-1-yl)methanone]
COCCCn1c([C@@H]2CCCN(C(=O)[C@@H]3CN(S(=O)(=O)c4ccc(Cl)cc4Cl)C[C@H]3N)C2)nc2ccccc21 [Compound 350, ((3R,4S)-4-amino-1-(2,4-dichlorophenylsulfonyl)pyrrolidin-3-yl)((R)-3-(1-(3-methoxypropyl)-1H-benzo[d]imidazol-2-yl)piperidin-1-yl)methanone]
COCCCn1c([C@@H]2CCCN(C(=O)[C@@H]3CN(S(=O)(=O)c4cccc(Cl)c4)C[C@H]3N)C2)nc2ccccc21 [Compound 351, ((3R,4S)-4-amino-1-(3-chlorophenylsulfonyl)pyrrolidin-3-yl)((R)-3-(1-(3-methoxypropyl)-1H-benzo[d]imidazol-2-yl)piperidin-1-yl)methanone]
COCCCn1c([C@@H]2CCCN(C(=O)[C@@H]3CN(C(=O)c4ccc(-c5ccccc5)o4)C[C@H]3N)C2)nc2ccccc21 [Compound 352, ((3R,4S)-4-amino-1-(5-phenylfuran-2-carbonyl)pyrrolidin-3-yl)((R)-3-(1-(3-methoxypropyl)-1H-benzo[d]imidazol-2-yl)piperidin-1-yl)methanone]
COCCCn1c([C@@H]2CCCN(C(=O)[C@@H]3CN(S(=O)(=O)c4cccc(Cl)c4C)C[C@H]3N)C2)nc2ccccc21 [Compound 353, ((3R,4S)-4-amino-1-(3-chloro-2-methylphenylsulfonyl)pyrrolidin-3-yl)((R)-3-(1-(3-methoxypropyl)-1H-benzo[d]imidazol-2-yl)piperidin-1-yl)methanone]
COCCCn1c([C@@H]2CCCN(C(=O)[C@@H]3CN(S(=O)(=O)c4cccc5ccccc45)C[C@H]3N)C2)nc2ccccc21 [Compound 354, ((3R,4S)-4-amino-1-(naphthalen-1-ylsulfonyl)pyrrolidin-3-yl)((R)-3-(1-(3-methoxypropyl)-1H-benzo[d]imidazol-2-yl)piperidin-1-yl)methanone]
COCCCn1c([C@@H]2CCCN(C(=O)[C@@H]3CN(S(=O)(=O)c4ccc5c(c4)CCO5)C[C@H]3N)C2)nc2ccccc21 [Compound 355, ((3R,4S)-4-amino-1-(2,3-dihydrobenzofuran-5-ylsulfonyl)pyrrolidin-3-y1)((R)-3-(1-(3-methoxypropyl)-1H-benzo[d]imidazol-2-yl)piperidin-1-yl)methanone]
COCCCn1c([C@@H]2CCCN(C(=O)[C@@H]3CN(S(=O)(=O)c4cc(C(F)(F)F)ccc4Cl)C[C@H]3N)C2)nc2ccccc21 [Compound 356, ((3R,4S)-4-amino-1-(2-chloro-5-(trifluoromethyl)phenylsulfonyl)pyrrolidin-3-yl)((R)-3-(1-(3-methoxypropyl)-1H-benzo[d]imidazol-2-yl)piperidin-1-yl)methanone]
COCCCn1c([C@@H]2CCCN(C(=O)[C@@H]3CN(S(=O)(=O)c4cccc(OC)c4)C[C@H]3N)C2)nc2ccccc21 [Compound 357, ((3R,4S)-4-amino-1-(3-methoxyphenylsulfonyl)pyrrolidin-3-yl)((R)-3-(1-(3-methoxypropyl)-1H-benzo[d]imidazol-2-yl)piperidin-1-yl)methanone]
COCCCn1c([C@@H]2CCCN(C(=O)[C@@H]3CN(C(=O)c4cccc(Oc5ccccc5)c4)C[C@H]3N)C2)nc2ccccc21 [Compound 358, ((3R,4S)-4-amino-1-(3-phenoxybenzoyl)pyrrolidin-3-yl)((R)-3-(1-(3-methoxypropy1)-1H-benzo[d]imidazol-2-yl)piperidin-1-yl)methanone]
COCCCn1c([C@@H]2CCCN(C(=O)[C@@H]3CN(S(=O)(=O)c4c(C)cccc4Cl)C[C@H]3N)C2)nc2ccccc21 [Compound 359, ((3R,4S)-4-amino-1-(2-chloro-6-methylphenylsulfonyl)pyrrolidin-3-yl)((R)-3-(1-(3-methoxypropyl)-1H-benzo[d]imidazol-2-yl)piperidin-1-yl)methanone]
COCCCn1c([C@@H]2CCCN(C(=O)[C@@H]3CN(S(=O)(=O)c4ccc5c(ccn5C)c4)C[C@H]3N)C2)nc2ccccc21 [Compound 360, ((3R,4S)-4-amino-1-(1-methyl-1H-indol-5-ylsulfonyl)pyrrolidin-3-yl)((R)-3-(1-(3-methoxypropyl)-1H-benzo[d]imidazol-2-yl)piperidin-1-yl)methanone]
